Consider twelve substances from patent US4504414A, “Synthetic pyridyl-alanyl decapeptides having antiovulatory activity” (Board of Regents, The University of Texas System, priority 1983, dated 1985).

The subject of test [1] is ovulation in rats. Briefly: Inhibition of ovulation in rats, subcutaneous administration. Type of test: in vivo, rat. As to conditions: for inhibition of ovulation: 40 hrs before anticipated ovulation. As for the experimental part:
(§1) Biological Assays. The peptides were assayed for activity to inhibit ovulation in rats, as described [J. Humphries, Y.-P. Wan, K. Folkers and C. Y. Bowers; J. Med. Chem. 21, 120-123 (1978)]. The procedure for assay when the antagonist is administered orally is the same except for the route of administration.

The subject of test [2] is ovulation in rats. To be noted: data of Coy et al., cited from earlier work.
Another test relates to ovulation in the rat. As to the kind of experiment: Assays of antagonists for oral activity (inhibition of ovulation in the rat). The format is in vivo. As for the experimental part: as §1
Analogs I, XI and XII were also tested by the oral route of administration for inhibition of ovulation in the rat, since the projected human application would be by oral administration. The data in Table 3 resulted from the administration at noon. When the administration is at 2:30 PM, effectiveness is reduced, presumably because of the LH surge. Analog I caused 100% AOA at a 2 mg dosage with administration at noon and 71% AOA/2 mg and 50% AOA/1 mg by administration at 2:30 PM Nekola et al. [Science 218, 160-162 (1982)] have reported on the oral activity of I under diverse conditions.

Where “and” joins values, the source holds several entries; their conditions need not be identical. Equal values may be shown once. Read-outs that look alike come from different tables or passages of the source.

Consider “[N--Ac--(pCl--D-Phe)^1,2,D-3-Pal^3,D-Arg^6,D-Ala^10 ]--LHRH [Analog II]”, for which the “% AOA (% inhibition of ovulation in rats)” value came out at 58% in the test with ovulation in rats [1] (dose 0.5 μg) and 78% with ovulation in rats [1] (dose 1.0 μg). In addition, the “Rats ovu./No. rats” value with ovulation in rats [1] (dose 0.5 μg) is 8/19; with ovulation in rats [1] (dose 1.0 μg) it was 3/14.

Consider “[N--Ac--(pCl--D-Phe)^1,2,D-3-Pal^3,6 ]--LHRH [Analog X]”, for which, in the test with ovulation in rats [1] (dose 1.0 μg), the “% AOA (% inhibition of ovulation in rats)” value was determined as 17% and the “Rats ovu./No. rats” value is 5/6. Moreover, in the test on ovulation in rats [1] (dose 3.0 μg), the “% AOA (% inhibition of ovulation in rats)” value is recorded as 86% and the “Rats ovu./No. rats” value is listed as 1/7.

Regarding “[N--Ac--(pCl--D-Phe)^1,2,D-4-Pal^3,6,D-Ala^10 ]--LHRH [Analog VI]”, in the test with ovulation in rats [1] (dose 6.0 μg), the “% AOA (% inhibition of ovulation in rats)” value is 63% and 62.5%; the “Rats ovu./No. rats” value is given as 3/8.

Take “[N--Ac--(pCl--D-Phe)^1,2,D-4-Pal^3,D-Arg^6,D-Ala^10 ]--LHRH [Analog IV]”: in the test on ovulation in rats [1] (dose 0.5 μg), the “% AOA (% inhibition of ovulation in rats)” value is reported as 14% and the “Rats ovu./No. rats” value is 6/7. In the test on ovulation in rats [1] (dose 6.0 μg), the “% AOA (% inhibition of ovulation in rats)” value was found to be 33% and the “Rats ovu./No. rats” value is given as 6/9.

Take “[N--Ac--(pCl--D-Phe)^1,2,D-2-Pal^3,D-Arg^6,D-Ala^10 ]--LHRH [Analog III]”: in the test with ovulation in rats [1] (dose 1.0 μg), the “% AOA (% inhibition of ovulation in rats)” value was determined as 29% and the “Rats ovu./No. rats” value was 5/7.

For “[N--Ac--(pCl--D-Phe)^1,2,D-Trp^3,D-Arg^6,D-Ala^10 ]--LHRH [Analog I, reference compound]”, the “% AOA (% inhibition of ovulation in rats)” value with ovulation in rats [2] (dose 0.75 μg) is recorded as 40%; in the test on ovulation in rats [2] (dose 1.5 μg) it was 100%; in the test on ovulation in rats [1] (dose 1.0 μg), 83%. Moreover, the “Rats ovu./No. rats” value in the test with ovulation in rats [2] (dose 0.75 μg) is 6/10; in the test on ovulation in rats [2] (dose 1.5 μg), 0/10; with ovulation in rats [1] (dose 1.0 μg), 1/6. Besides, the “% AOA” value in the test on ovulation in the rat (1 mg, administered at 2:30 PM) amounted to 50%; in the test on ovulation in the rat (2 mg, administered at 2:30 PM), 71%; with ovulation in the rat (2 mg, administered at noon) it was 100%. In the test on ovulation in the rat (2 mg, administered at noon), the “No. Ova.” value is reported as 0. Moreover, the “Rats Ovu./No. Rats” value in the test on ovulation in the rat (2 mg, administered at noon) is recorded as 0/8.

On to “[N--Ac--D-2-Nal^1,pCl--D-Phe^2,D-3-Pal^3,D-Arg^6, D-Ala^10 ]--LHRH [Analog XI]”, for which the “% AOA” value with ovulation in the rat (250 μg, administered at noon) was 10%; in the test on ovulation in the rat (500 μg, administered at noon), 56%. The “No. Ova.” value came to 13.0 ± 1.8 with ovulation in the rat (250 μg, administered at noon) and 6.1 ± 2.5 in the test on ovulation in the rat (500 μg, administered at noon). Also, the “Rats Ovu./No. Rats” value with ovulation in the rat (250 μg, administered at noon) is given as 9/10; with ovulation in the rat (500 μg, administered at noon), 4/9. Moreover, the inhibition of ovulation with ovulation in rats [1] (10 μg), in the test with ovulation in rats [1] (30 μg) and in the test with ovulation in rats [1] (100 μg) was 100% each time. For the same substance, the “% AOA (% inhibition of ovulation in rats)” value in the test with ovulation in rats [1] (dose 0.25 μg) is 57%; with ovulation in rats [1] (dose 0.5 μg) it was 100%. Moreover, the “Rats ovu./No. rats” value is 3/7 in the test with ovulation in rats [1] (dose 0.25 μg) and 0/9 with ovulation in rats [1] (dose 0.5 μg).

For the substance “[N--Ac--3,4-diCl--D-Phe^1,pCl--D-Phehu 2,D-3-Pal^3,D-Arg^7, D-Ala^10 ]--LHRH [Analog XII]”, in the test on ovulation in the rat (250 μg, administered at noon), the “No. Ova.” value is on record as 12.2 ± 1.0 and the “Rats Ovu./No. Rats” value is on record as 5/5. Moreover, in the test on ovulation in the rat (500 μg, administered at noon), the “% AOA” value was found to be 63%, the “No. Ova.” value was 5.6 ± 2.7 and the “Rats Ovu./No. Rats” value is 3/8. Moreover, in the test with ovulation in rats [1] (dose 0.25 μg), the “Rats ovu./No. rats” value was 9/9. In the test on ovulation in rats [1] (dose 0.5 μg), the “% AOA (% inhibition of ovulation in rats)” value is 82% and the “Rats ovu./No. rats” value is on record as 9/11.

Take “[N--Ac--(pCl--D-Phe)^1,2,D-3-Pal^3,6,D-Ala^10 ]--LHRH [Analog V]”: in the test on ovulation in rats [1] (dose 1.0 μg), the “% AOA (% inhibition of ovulation in rats)” value is 50% and the “Rats ovu./No. rats” value is on record as 5/10. Moreover, in the test on ovulation in rats [1] (dose 3.0 μg), the “% AOA (% inhibition of ovulation in rats)” value is listed as 100% and the “Rats ovu./No. rats” value is reported as 0/7.

Regarding “[N--Ac--(pCl--D-Phe)^1,2,D-3-Pal^3,D-Arg^6,D-Abu^10 ]--LHRH [Analog IX]”, in the test on ovulation in rats [1] (dose 1.0 μg), the “% AOA (% inhibition of ovulation in rats)” value was 10% and the “Rats ovu./No. rats” value is 9/10.

For the substance “[N--Ac-- (pCl--D-Phe)^1,2,D-Trp^3,D-3-Pal^6,D-Ala^10 ]--LHRH [Analog VII]”, in the test on ovulation in rats [1] (dose 2.0 μg), the “% AOA (% inhibition of ovulation in rats)” value amounted to 13%.

Regarding “[N--Ac--(pCl--D-Phe)^1,2,D-3-Pal^3,D-Trp^6,D-Ala^10 ]--LHRH [Analog VIII]”, the “Rats ovu./No. rats” value in the test on ovulation in rats [1] (dose 1.0 μg) is listed as 10/10.
